Data on one molecule can be found in paper PMC6271101, “Antioxidant, 5-Lipoxygenase Inhibitory and Cytotoxic Activities of Compounds Isolated from the Ferula lutea Flowers” (Molecules, 2014).

Series [1] in a line: MTT cytotoxicity assay, IGROV-1. It is filed as cell-based. The conditions noted are these: human, IGROV-1 ovary cells; IGROV-1, MTT; read-out: Cytotoxic Activity (IC50 µmol/L) IGROV-1. How it is done: (§1) The human cancer cell line was used for cytotoxic assay: (HCT-116, IGROV-1 and OVCAR-3). The cells were grown in RPMI-1640 medium supplemented with 10% faetal calf serum (Gibco, Langley, OK, USA), air and 5% CO2. The isolate was added to a medium containing 1 × 10^6 cells/mL, 2 mM L-glutamine and 50 μg/mL gentamycin, and kept at 37 °C in a fully humidified atmosphere. After 18 h of incubation at 37 °C in 5% CO2 incubator, the tubes were centrifuged at 8000 g for 10 min. The supernatant was decanted, and the pellets taken and washed with 20 mM of phosphate buffered saline solution. Each pellet was dissolved in 100 μL (2 mg/mL) MTT solution in a tube, incubated at 22 °C for 4 h and centrifuged at 8000 g for 10 min. All the pellets were dissolved in 500 μL DMSO and read spectrophotometrically at 500 nm. IC50 was calculated by nonlinear regression analysis. Doxorubicin (HCT116) and tamoxifen (IGROV-1 and OVCAR-3) were used as positive control.
(In general: Tetrazolium dyes change colour on reduction, which living cells bring about.)

For series [2] the following is noted: previously tested; cited from earlier work.
Series [3] in a line: ABTS radical-scavenging test. Conditions: mean ± SD of three measurements; read-out: IC50 (µmol/L) ABTS+ Assay. How it is done: The radical scavenging capacity of the samples for the ABTS (2,2′-azinobis-3-ethylbenzothiazoline-6-sulphonate) radical cation was determined as described by Khlifi et al., [33] with some modifications. ABTS was generated by mixing a 7 mM of ABTS at pH 7.4 (5 mM NaH2PO4, 5 mM Na2HPO4 and 154 mM NaCl) with 2.5 mM potassium persulfate (final concentration) followed by storage in the dark at room temperature for 16 h before use. The mixture was diluted with ethanol to give an absorbance of 0.70 ± 0.02 units at 734 nm using spectrophotometer. For each sample, diluted solution (20 μL) was allowed to react with fresh ABTS solution (180 μL), and then the absorbance was measured 6 min after initial mixing. […] The capacity of free radical scavenging IC50 was determined using the same previously used equation for the DPPH method. All measurements were performed in triplicate.

Series [4] in a line: MTT cytotoxicity assay, HCT-116. Format: cell-based. The conditions noted are these: human, HCT-116 colon carcinoma cells; HCT-116, MTT; read-out: Cytotoxic Activity (IC50 µmol/L) HCT-116. As for the experimental part:
as §1

A short description of series [5]: DPPH free radical scavenging test. The conditions noted are these: mean ± SD of three measurements; read-out: IC50 (µmol/L) DPPH Assay. As for the experimental part:
The antioxidant activity of compounds was assessed according to their DPPH scavenging ability as described by Khlifi et al., [33] with some modifications. Reaction mixtures, containing 0.1 mL of the relevant compounds solution in methanol, with concentrations ranging 3 mg/mL and 0.1 mL of a 0.2 mM DPPH methanolic solution, were added to 96-well microtiter plates and incubated at 25 °C for 30 min. Absorbances were measured at 520 nm, the wavelength of maximum absorbance of DPPH, were recorded as A(sample). A blank experiment was also carried out applying the same procedure to a solution without the test material and the absorbance was recorded as A(blank).
Ascorbic acid was used as a standard. All measurements were performed in triplicate.
In general terms: DPPH is a stable violet radical that fades when it is reduced.

A further series has as its target T1, 5-lipoxygenase (Glycine max, UniProt P08170).
T1 sequence (P08170 1-839): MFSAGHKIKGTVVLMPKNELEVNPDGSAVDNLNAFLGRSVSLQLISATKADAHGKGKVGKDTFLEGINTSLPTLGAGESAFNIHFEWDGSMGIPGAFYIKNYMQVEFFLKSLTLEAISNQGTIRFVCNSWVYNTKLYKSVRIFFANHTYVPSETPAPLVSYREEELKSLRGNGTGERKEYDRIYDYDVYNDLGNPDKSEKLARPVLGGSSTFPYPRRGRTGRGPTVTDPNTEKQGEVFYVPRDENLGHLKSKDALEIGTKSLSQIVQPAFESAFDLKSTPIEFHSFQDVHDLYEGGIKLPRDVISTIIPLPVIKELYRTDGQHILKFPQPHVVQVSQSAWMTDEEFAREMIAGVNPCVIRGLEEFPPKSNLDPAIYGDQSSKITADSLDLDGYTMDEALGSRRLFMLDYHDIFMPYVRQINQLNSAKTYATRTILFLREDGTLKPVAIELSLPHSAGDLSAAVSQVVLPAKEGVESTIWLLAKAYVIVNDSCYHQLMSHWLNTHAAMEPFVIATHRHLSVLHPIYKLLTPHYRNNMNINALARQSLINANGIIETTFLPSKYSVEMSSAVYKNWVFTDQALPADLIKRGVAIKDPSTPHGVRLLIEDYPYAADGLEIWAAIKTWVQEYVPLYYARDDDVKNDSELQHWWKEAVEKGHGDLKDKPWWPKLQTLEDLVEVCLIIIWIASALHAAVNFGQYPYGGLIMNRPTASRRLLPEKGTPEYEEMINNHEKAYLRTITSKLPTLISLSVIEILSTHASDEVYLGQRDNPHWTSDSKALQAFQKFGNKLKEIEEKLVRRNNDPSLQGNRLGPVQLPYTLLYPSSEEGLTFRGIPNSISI
The series is described as follows: 5-Lipoxygenase inhibitory assay (linoleic acid, 234 nm). It is filed as biochemical, Soybean. As for the experimental part:
The anti-inflammatory activity activities of the isolates was determined on Soybean lipoxygenase as described by Khlifi et al. with some modifications. 20 µL of each compound was mixed individually with 150 µL sodium phosphate buffer (pH 7.4) containing 20 µL of 5-lipoxygenase and 60 µL of linoleic acid (3.5 mM), yielding a final volume of 250 µL. […] The mixture was incubated at 25 °C for 10 min, and the absorbance was determined at 234 nm. The absorption change with the conversion of linoleic acid to 13-hydroperoxyoctadeca-9,11-dienoate (characterized by the appearance of the conjugated diene at 234 nm) was followed for 10 min at 25 °C. […] All measurements were performed in triplicate.

Series [6] has as its system human chronic myelogenous leukemia cell line K562. On the set-up: method as in PMID 22913434. The conditions noted are these: read-out: IC50 against K562; cited from earlier work.
Series [7] can be described thus: MTT cytotoxicity assay, OVCAR-3. Format: cell-based. The conditions noted are these: human, OVCAR-3 ovary cells; OVCAR-3, MTT; read-out: Cytotoxic Activity (IC50 µmol/L) OVCAR-3. How it is done:
as §1

Consider `COc1cc(-c2oc3cc(O)cc(O)c3c(=O)c2O[C@@H]2O[C@H](CO[C@@H]3O[C@@H](C)[C@H](O)[C@@H](O)[C@H]3O)[C@@H](O)[C@H](O)[C@H]2O)ccc1O` [Compound 8, Isorhamnetin-3-O-α-L-rhamnopyranosyl(1→6)-β-D-glucopyranoside,narcissin], for which the IC50 at 18 h in series [1], in series [4] and in series [7] was greater than 100 µmol/L each time. Further, the “DPPH radical scavenging activity” value in series [2] is given as “no activity”. The figures for the IC50 in series [3], in series [5] and in series [6] were greater than 300 µmol/L, greater than 300 µmol/L and 800 µM, respectively. For the same molecule, the “5-Lipoxygenase Inhibitory (% at 80 µmol/L)” value on 5-lipoxygenase (at 80 µmol/L) is “did not exhibit activities”. Moreover, the inhibition at 80 µM at 5-lipoxygenase (read-out: 5-Lipoxygenase Inhibitory (% at 80 µmol/L)) is 0%.
